Columns and labels:
rice = assay: Test B flooded paddy test; type: in vivo, Oryza sativa; settings: 250 g ai/ha, Flood, 13 days, 0 to 100 scale (0 no effect, 100 complete control)
In short: (§1)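 Each species was raised to the 2-leaf stage. At treatment, each pot received floodwater 3 cm deep, with the chemical delivered into the water. Greenhouse holding followed for 13 days, then percent control was estimated visually versus untreated pots.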

barnyardgrass [1] = assay: Test A postemergence; type: in vivo, Echinochloa crusgalli
In short: (§2)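 Plants were grown in loam and sand and treated preemergence or postemergence (one- to two-leaf stage, 2–10 cm) with compound in solvent plus surfactant. Response was scored against untreated controls after 10 greenhouse days, where 0 means no effect and 100 complete control.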

foxtail, giant [2] = assay: Test A preemergence; type: in vivo, Setaria faberi
In short: as §2

kochia [3] = assay: Test A preemergence; type: in vivo, Bassia scoparia
In short: as §2

sedge, umbrella = assay: Test B flooded paddy test; type: in vivo, Cyperus difformis; settings: 250 g ai/ha, Flood, 13 days, 0 to 100 scale (0 no effect, 100 complete control)
In short: as §1

ragweed [4] = assay: Test A preemergence; type: in vivo, Ambrosia artemisiifolia
In short: as §2

ragweed [5] = assay: Test A postemergence; type: in vivo, Ambrosia artemisiifolia
In short: as §2

galium = assay: Test A postemergence; type: in vivo, Galium aparine
In short: as §2

foxtail, giant [6] = assay: Test A postemergence; type: in vivo, Setaria faberi
In short: as §2

kochia [7] = assay: Test A postemergence; type: in vivo, Bassia scoparia
In short: as §2

corn = assay: Test A postemergence; type: in vivo, Zea mays
In short: as §2

barnyardgrass [8] = assay: Test B flooded paddy test; type: in vivo, Echinochloa crus-galli; settings: 250 g ai/ha, Flood, 13 days, 0 to 100 scale (0 no effect, 100 complete control)
In short: as §1

Pigweed, Redroot [9] = assay: Test A preemergence; type: in vivo, Amaranthus retroflexus
Excerpt: (§3) Seeds of plant species selected from barnyardgrass (Echinochloa crusgalli), blackgrass (Alopecurus myosuroides), corn (Zea mays), foxtail, giant (giant foxtail, Setaria faberi), goosegrass (Eleusine indica), kochia (Bassia scoparia), oat, wild (wild oat, Avena fatua), pigweed, palmer (palmer amaranth, palmer pigweed, Amaranthus palmeri), Pigweed, Redroot (redroot pigweed, Amaranthus retroflexus), ragweed (common ragweed, Ambrosia artemisiifolia), ryegrass, Italian (italian ryegrass, Lolium multiflorum), soybean (Glycine max), and wheat (Triticum aestivum) were planted into a blend of loam soil and sand and treated preemergence with a directed soil spray using test chemicals formulated in a non-phytotoxic solvent mixture which included a surfactant. At the same time, plants selected from these crops and weed species and also galium (catchweed bedstraw, Galium aparine) and horseweed (Erigeron canadensis) were planted in pots containing the same blend of loam soil and sand and treated with postemergence applications of test chemicals formulated in the same manner. Plants ranged in height from 2 to 10 cm and were in the one- to two-leaf stage for the postemergence treatment. Treated plants and untreated controls were maintained in a greenhouse for 10 days, after which time all treated plants were compared to untreated controls and visually evaluated for injury. Plant response ratings, summarized in Table A, are based on a 0 to 100 scale where 0 is no effect and 100 is complete control. A dash (-) response means no test result.

barnyardgrass [10] = assay: Test A preemergence; type: in vivo, Echinochloa crusgalli
In short: as §2

wheat = assay: Test A postemergence; type: in vivo, Triticum aestivum
In short: as §2

ryegrass, Italian [11] = assay: Test A preemergence; type: in vivo, Lolium multiflorum
In short: as §2

Pigweed, Redroot [12] = assay: Test A postemergence; type: in vivo, Amaranthus retroflexus
Excerpt: as §3

blackgrass = assay: Test A postemergence; type: in vivo, Alopecurus myosuroides
In short: as §2

ducksalad = assay: Test B flooded paddy test; type: in vivo, Heteranthera limosa; settings: 250 g ai/ha, Flood, 13 days, 0 to 100 scale (0 no effect, 100 complete control)
In short: as §1

ryegrass, Italian [13] = assay: Test A postemergence; type: in vivo, Lolium multiflorum
In short: as §2

[14] = 125 g ai/ha, postemergence, 10 days, visual injury, 0 to 100 scale (0 no effect, 100 complete control)
[15] = 500 g ai/ha, Postemergence, 0 to 100 scale
[16] = 125 g ai/ha, visual injury after 10 days, 0 to 100 scale, 0 is no effect, 100 is complete control
[17] = 500 g ai/ha, 0 to 100 scale (0 no effect, 100 complete control), 10 days
[18] = 1000 g ai/ha, Postemergence, 0 to 100 scale
[19] = 1000 g ai/ha, 0 to 100 scale (0 no effect, 100 complete control), 10 days

CCC1CN(C(=O)c2cncc(-n3cncn3)c2)c2cccc(Cl)c2O1 (racemic) [Compound 6]
Plant response rating, Rice (rice): 0 | Plant response rating, Barnyardgrass (barnyardgrass [1]; [14]): 0 | Plant response rating, Barnyardgrass (barnyardgrass [1]; [15]): 10 | Plant response rating, Foxtail, Giant (foxtail, giant [2]; [16]): 0 | Plant response rating, Foxtail, Giant (foxtail, giant [2]; [17]): 60 | Plant response rating, Kochia (kochia [3]; [16]): 0 | Plant response rating, Kochia (kochia [3]; [17]): 0 | Plant response rating, Sedge, Umbrella (sedge, umbrella): 0 | Plant response rating, Ragweed (ragweed [4]; [16]): 0 | Plant response rating, Ragweed (ragweed [4]; [17]): 30 | Plant response rating, Ragweed (ragweed [5]; [14]): 0 | Plant response rating, Ragweed (ragweed [5]; [15]): 0 | Plant response rating, Galium (galium; [14]): 0 | Plant response rating, Galium (galium; [15]): 30 | Plant response rating, Foxtail, Giant (foxtail, giant [6]; [14]): 0 | Plant response rating, Foxtail, Giant (foxtail, giant [6]; [15]): 10 | Plant response rating, Kochia (kochia [7]; [14]): 0 | Plant response rating, Kochia (kochia [7]; [15]): 0 | Plant response rating, Corn (corn; [14]): 0 | Plant response rating, Corn (corn; [15]): 0 | Plant response rating, Barnyardgrass (barnyardgrass [8]): 0 | Plant response rating, Pigweed, Redroot (Pigweed, Redroot [9]; [16]): 0 | Plant response rating, Pigweed, Redroot (Pigweed, Redroot [9]; [17]): 20 | Plant response rating, Barnyardgrass (barnyardgrass [10]; [16]): 0 | Plant response rating, Barnyardgrass (barnyardgrass [10]; [17]): 0 | Plant response rating, Wheat (wheat; [14]): 0 | Plant response rating, Wheat (wheat; [15]): 0 | Plant response rating, Ryegrass, Italian (ryegrass, Italian [11]; [16]): 20 | Plant response rating, Ryegrass, Italian (ryegrass, Italian [11]; [17]): 50 | Plant response rating, Pigweed, Redroot (Pigweed, Redroot [12]; [14]): 0 | Plant response rating, Pigweed, Redroot (Pigweed, Redroot [12]; [15]): 30 | Plant response rating, Blackgrass (blackgrass; [14]): 0 | Plant response rating, Blackgrass (blackgrass; [15]): 0 | Plant response rating, Ducksalad (ducksalad): 0 | Plant response rating, Ryegrass, Italian (ryegrass, Italian [13]; [14]): 50 | Plant response rating, Ryegrass, Italian (ryegrass, Italian [13]; [15]): 40

CCC1CN(C(=O)c2cccc(-n3cncn3)c2)c2cccc(Cl)c2O1 (racemic) [Compound 7]
Plant response rating, Rice (rice): 0 | Plant response rating, Barnyardgrass (barnyardgrass [1]; [14]): 10 | Plant response rating, Barnyardgrass (barnyardgrass [1]; [15]): 20 | Plant response rating, Foxtail, Giant (foxtail, giant [2]; [16]): 10 | Plant response rating, Foxtail, Giant (foxtail, giant [2]; [17]): 80 | Plant response rating, Kochia (kochia [3]; [16]): 40 | Plant response rating, Kochia (kochia [3]; [17]): 80 | Plant response rating, Sedge, Umbrella (sedge, umbrella): 0 | Plant response rating, Ragweed (ragweed [4]; [16]): 0 | Plant response rating, Ragweed (ragweed [4]; [17]): 0 | Plant response rating, Ragweed (ragweed [5]; [14]): 0 | Plant response rating, Ragweed (ragweed [5]; [15]): 0 | Plant response rating, Galium (galium; [14]): 0 | Plant response rating, Galium (galium; [15]): 60 | Plant response rating, Foxtail, Giant (foxtail, giant [6]; [14]): 10 | Plant response rating, Foxtail, Giant (foxtail, giant [6]; [15]): 20 | Plant response rating, Kochia (kochia [7]; [14]): 0 | Plant response rating, Kochia (kochia [7]; [15]): 20 | Plant response rating, Corn (corn; [14]): 0 | Plant response rating, Corn (corn; [15]): 0 | Plant response rating, Barnyardgrass (barnyardgrass [8]): 0 | Plant response rating, Pigweed, Redroot (Pigweed, Redroot [9]; [16]): 0 | Plant response rating, Pigweed, Redroot (Pigweed, Redroot [9]; [17]): 40 | Plant response rating, Barnyardgrass (barnyardgrass [10]; [16]): 0 | Plant response rating, Barnyardgrass (barnyardgrass [10]; [17]): 0 | Plant response rating, Wheat (wheat; [14]): 30 | Plant response rating, Wheat (wheat; [15]): 40 | Plant response rating, Ryegrass, Italian (ryegrass, Italian [11]; [16]): 50 | Plant response rating, Ryegrass, Italian (ryegrass, Italian [11]; [17]): 50 | Plant response rating, Pigweed, Redroot (Pigweed, Redroot [12]; [14]): 0 | Plant response rating, Pigweed, Redroot (Pigweed, Redroot [12]; [15]): 30 | Plant response rating, Blackgrass (blackgrass; [14]): 0 | Plant response rating, Blackgrass (blackgrass; [15]): 30 | Plant response rating, Ducksalad (ducksalad): 0 | Plant response rating, Ryegrass, Italian (ryegrass, Italian [13]; [14]): 0 | Plant response rating, Ryegrass, Italian (ryegrass, Italian [13]; [15]): 0

C[C@H]1CN(C(=O)c2cccc(-n3cncn3)c2)c2cccc(Cl)c2O1 [Compound 18, [(2S)-8-Chloro-2,3-dihydro-2-methyl-4H-1,4-benzoxazin-4-yl][3-(1H-1,2,4-triazol-1-yl)phenyl]methanone]
plant injury at 250 g/ha (rice; Oryza sativa, 312 h, read-out: Plant response rating, Rice): 0% | Plant response rating, Barnyardgrass (barnyardgrass [1]; [18]): 70 | pest or weed control at 1000 g/ha (foxtail, giant [2]; Setaria faberi, pre-emergence, 240 h, 1000 g ai/ha, 0 to 100 scale (0 no effect, 100 complete control), 10 days, read-out: Plant response rating, Foxtail, Giant): 100% | pest or weed control at 1000 g/ha (kochia [3]; Bassia scoparia, pre-emergence, 240 h, 1000 g ai/ha, 0 to 100 scale (0 no effect, 100 complete control), 10 days, read-out: Plant response rating, Kochia): 70% | pest or weed control at 250 g/ha (sedge, umbrella; Cyperus difformis, 312 h, read-out: Plant response rating, Sedge, Umbrella): 0% | pest or weed control at 1000 g/ha (ragweed [4]; Ambrosia artemisiifolia, pre-emergence, 240 h, 1000 g ai/ha, 0 to 100 scale (0 no effect, 100 complete control), 10 days, read-out: Plant response rating, Ragweed): 80% | pest or weed control at 1000 g/ha (ragweed [5]; Ambrosia artemisiifolia, post-emergence, 240 h, 1000 g ai/ha, Postemergence, 0 to 100 scale, read-out: Plant response rating, Ragweed): 20% | pest or weed control at 1000 g/ha (galium; Galium, post-emergence, 240 h, 1000 g ai/ha, Postemergence, 0 to 100 scale, read-out: Plant response rating, Galium): 90% | pest or weed control at 1000 g/ha (foxtail, giant [6]; Setaria faberi, post-emergence, 240 h, 1000 g ai/ha, Postemergence, 0 to 100 scale, read-out: Plant response rating, Foxtail, Giant): 90% | pest or weed control at 1000 g/ha (kochia [7]; Bassia scoparia, post-emergence, 240 h, 1000 g ai/ha, Postemergence, 0 to 100 scale, read-out: Plant response rating, Kochia): 50% | Corn plant response rating (crop injury, 0 = no effect, 100 = complete kill) at 1000 g/ha (corn; Zea mays, post-emergence, 240 h, 1000 g ai/ha, Postemergence, 0 to 100 scale): 40% | pest or weed control at 250 g/ha (barnyardgrass [8]; Echinochloa crus-galli, 312 h, read-out: Plant response rating, Barnyardgrass): 0% | Plant response rating, Pigweed, Redroot (Pigweed, Redroot [9]; [19]): 100 | Plant response rating, Barnyardgrass (barnyardgrass [10]; [19]): 90 | plant injury at 1000 g/ha (wheat; Triticum aestivum, post-emergence, 240 h, 1000 g ai/ha, Postemergence, 0 to 100 scale, read-out: Plant response rating, Wheat): 0% | pest or weed control at 1000 g/ha (ryegrass, Italian [11]; Lolium multiflorum, pre-emergence, 240 h, 1000 g ai/ha, 0 to 100 scale (0 no effect, 100 complete control), 10 days, read-out: Plant response rating, Ryegrass, Italian): 90% | Plant response rating, Pigweed, Redroot (Pigweed, Redroot [12]; [18]): 40 | pest or weed control at 1000 g/ha (blackgrass; Alopecurus myosuroides, post-emergence, 240 h, 1000 g ai/ha, Postemergence, 0 to 100 scale, read-out: Plant response rating, Blackgrass): 70% | pest or weed control at 250 g/ha (ducksalad; Heteranthera limosa, 312 h, read-out: Plant response rating, Ducksalad): 0% | pest or weed control at 1000 g/ha (ryegrass, Italian [13]; Lolium multiflorum, post-emergence, 240 h, 1000 g ai/ha, Postemergence, 0 to 100 scale, read-out: Plant response rating, Ryegrass, Italian): 80%

CC1CN(C(=O)c2ccnc(-n3cncn3)c2)c2ccccc2O1 (stereo not shown) [Compound 19]
Plant response rating, Rice (rice): 0 | Plant response rating, Barnyardgrass (barnyardgrass [1]; [18]): 80 | Plant response rating, Foxtail, Giant (foxtail, giant [2]; [19]): 100 | Plant response rating, Kochia (kochia [3]; [19]): 60 | Plant response rating, Sedge, Umbrella (sedge, umbrella): 0 | Plant response rating, Ragweed (ragweed [4]; [19]): 80 | Plant response rating, Ragweed (ragweed [5]; [18]): 0 | Plant response rating, Galium (galium; [18]): 90 | Plant response rating, Foxtail, Giant (foxtail, giant [6]; [18]): 60 | Plant response rating, Kochia (kochia [7]; [18]): 30 | Plant response rating, Corn (corn; [18]): 50 | Plant response rating, Barnyardgrass (barnyardgrass [8]): 0 | Plant response rating, Pigweed, Redroot (Pigweed, Redroot [9]; [19]): 0 | Plant response rating, Barnyardgrass (barnyardgrass [10]; [19]): 90 | Plant response rating, Wheat (wheat; [18]): 70 | Plant response rating, Ryegrass, Italian (ryegrass, Italian [11]; [19]): 80 | Plant response rating, Pigweed, Redroot (Pigweed, Redroot [12]; [18]): 40 | Plant response rating, Blackgrass (blackgrass; [18]): 70 | Plant response rating, Ducksalad (ducksalad): 0 | Plant response rating, Ryegrass, Italian (ryegrass, Italian [13]; [18]): 60

Source: patent publication US20260262643A1, “HERBICIDAL BENZOXAZINES” (FMC CORPORATION, priority 2022, published 2026)
